# In US20260109721A1, “IONIZABLE CATIONIC LIPIDS INCORPORATING SILICON: SYNTHESIS AND LNP FORMULATION” (priority 2023, published 2026):
# Like-named read-outs stand apart in the source and are kept apart here.
# Assays:
# HepG2 cell line = assay: In vitro toxicity study on HepG2 cell line (resazurin, viability and IC50); assay type: cell-based, human; conditions: for IC50: Homo sapiens, read-out: IC50 value, μM (on HepG2 cell)
# Procedure: (§1) The synthesized lipids were tested in term of in vitro transfection efficacy and toxicity on HeLa cells. In order to perform the mentioned biological tests, appropriate LNPs had to be formulated from the synthesized lipids. The formulation technique was different in Method A and B. The particle size, polydispersity index (PDI) and zeta potential of resulting LNPs were determined by means of Dynamic Light Scattering technique (DLS). Prior to biological testing the encapsulation efficiency (EE) of the loaded LNPs was determined by using RiboGreen RNA assay. In case of Method A Luc mRNA while in case of Method B GFP mRNA was transfected into the cells. In parallel with the transfection experiments, toxicity of the investigated LNPs was determined, in case of Method A resazurin assay while in case of Method B MTT assay was used. Additionally, the toxicity of the lipids was investigated on HepG2 cells and IC50 values were determined.
# HepG2 cell line (human hepatocellular carcinoma) were maintained in DMEM medium supplemented with 10% FBS. Cell toxicity measurements were carried out in 384-well microtiter plates with 1000 cells seeded in each well. Test measurements were carried out in triplicate, and control measurements in quadruplicate. After an overnight incubation, the cells were treated with an increasing concentration of the test compounds (6.25, 12.5, 25, 50, 100, 200, 400, 800 μM). […] 48 h post-treatment, following visual inspection under an inverted microscope, cell viability was measured by resazurin assay. Viability of treated cells was calculated relative to that of ethanol vehicle controls. Concentration response curves (CRCs) were obtained and corresponding IC50 values were calculated where applicable and are shown in Table 9.
# Resazurin reagent (Sigma-Aldrich) was dissolved in PBS (pH 7.4) at 0.15 mg/ml concentration, 0.22 μm filtered and aliquoted at −20° C., 10 μl resazurin stock solution was added to wells. After 5 hours incubation at 37° C. under 5% CO2 fluorescence (530 nm excitation/580 nm emission) was recorded on a multimode microplate reader.
# [1] = Encapsulation efficiency of loaded LNPs, RiboGreen RNA assay (Method A); assay type: physicochemical
# Procedure: as §1
# • 1. Preparation of sample stock solutions: In the top row of the 96-well plate (Row A in the plate), add 297 μL of TE buffer pH 7.4 (see Table 1) to a single well for each sample plus a single well for a PBS blank using a multichannel pipette.
# • 2. Add 3 μL of sample (at 0.5 mg/ml) to these wells for a final volume of 300 μL. Add 3 μL of PBS to the blank well. Pipette to mix. This is your stock solution for each sample. The final RNA concentration of these stock solutions should be approximately 4-7 μg/mL. • 3. mRNA-LNP sample setup: • a. Add 50 μL of TE buffer pH 7.5 to the two wells directly below each sample (Rows B and C in the plate). • b. Add 50 μL of sample stock solution from Row A into the wells in Rows B and C (this assay is run in duplicate. All liquid handling should be done using a multichannel pipette). • c. Add 50 μL of Triton buffer to the wells in Rows D and E (in the plate) below each sample. • d. Add 50 μL of sample stock solution from Row A into the wells in Rows D and E. • 4. RiboGreen RNA standard curve setup: Dilute the RNA standard to produce an RNA stock at a final concentration of 20 μg/mL in TE buffer pH 7.4. The final volume should be 150 μL. Set up a standard curve (in duplicate) as using the RNA stock (20 μg/mL siRNA), TE buffer pH 7.5, and Triton X-100 buffer according the Table 2 and Table 3 below.
# • 5. Once samples and standard curve are plated, incubate the plate at 37° C. for 10 min to lyse mRNA-LNP in the presence of Triton X-100 buffer. • 6. Meanwhile, prepare RiboGreen Solution: Sum the total number of sample wells and standard curve wells. Add three to this number, and multiply the total by 100. This is the total volume, in μL, of RiboGreen Solution needed for this assay. In a 15 mL RNAse-free Falcon tube, dilute the RiboGreen Reagent 1:100 into TE buffer pH 7.5 to the total volume calculated. • 7. Addition of RiboGreen Solution and sample readings: Remove a 96-well plate from 37° C. incubator; let it cool to room temperature as RiboGreen binding is somewhat temperature dependent. Add 100 μL of RiboGreen Solution to each well. Pop any air bubbles with a needle. Read using fluorescent plate reader (excitation=480, emission=525). • 8. Sample analysis: Use the data generated by the RiboGreen standard curve to calculate the concentration of mRNA. Transfection Efficiency with Luciferase-mRNA (Method A)
# [2] = HepG2 cells, 6.25 μM lipid, 48 h post-treatment, resazurin, relative to ethanol vehicle controls
# [3] = HepG2 cells, 12.5 μM lipid, 48 h post-treatment, resazurin, relative to ethanol vehicle controls
# [4] = HepG2 cells, 25 μM lipid, 48 h post-treatment, resazurin, relative to ethanol vehicle controls
# [5] = HepG2 cells, 50 μM lipid, 48 h post-treatment, resazurin, relative to ethanol vehicle controls
# [6] = HepG2 cells, 100 μM lipid, 48 h post-treatment, resazurin, relative to ethanol vehicle controls
# [7] = HepG2 cells, 200 μM lipid, 48 h post-treatment, resazurin, relative to ethanol vehicle controls
# [8] = HepG2 cells, 400 μM lipid, 48 h post-treatment, resazurin, relative to ethanol vehicle controls
# [9] = HepG2 cells, 800 μM lipid, 48 h post-treatment, resazurin, relative to ethanol vehicle controls
# [10] = lipid toxicity, HepG2, 48 h post-treatment, resazurin, 6.25-800 μM
# [11] = encapsulation efficiency of mRNA-loaded LNP, Method A, RiboGreen
Structure (SMILES),"Viability (%) at different lipid concentrations, mean (HepG2 cell line; [2]) [%]","Viability (%) at different lipid concentrations, mean (HepG2 cell line; [3]) [%]","Viability (%) at different lipid concentrations, mean (HepG2 cell line; [4]) [%]","Viability (%) at different lipid concentrations, mean (HepG2 cell line; [5]) [%]","Viability (%) at different lipid concentrations, mean (HepG2 cell line; [6]) [%]","Viability (%) at different lipid concentrations, mean (HepG2 cell line; [7]) [%]","Viability (%) at different lipid concentrations, mean (HepG2 cell line; [8]) [%]","Viability (%) at different lipid concentrations, mean (HepG2 cell line; [9]) [%]",IC50 (HepG2 cell line; [10]) [µM],"EE (%) [1, 11] [%]","IC50 (HepG2 cell line; HepG2, 48 h) [µM]","Viability (%) at different lipid concentrations, mean (HepG2 cell line; human, 48 h, 25 μM) [%]",EE (%) [1] [%]
"CCCCC/C=C\C/C=C\CCCCCCCCOC(CCCCCCC/C=C\C/C=C\CCCCC)O[Si](C)(C)OCCCCCCN(C)CCO (centres unmarked) [Example 56, (23Z,26Z)-13-((8Z,11Z)-heptadeca-8,11-dien-1-yl)-3,11,11-trimethyl-10,12,14-trioxa-3-aza-11-siladotriaconta-23,26-dien-1-ol]",96.7,94.6,96.5,94.8,99.7,100.1,89.5,36.9,714,85,,,
"CCCCCCCC/C=C\CCCCCCCCOC(=O)C(C)(C)CC(OCCCCCCCC/C=C\CCCCCCCC)O[Si](C)(C)OCCCCCCN(C)CC(O)CO (centres unmarked) [Example 92, (Z)-octadec-9-en-1-yl 1,2-dihydroxy-4,12,12,16,16-pentamethyl-14-(((Z)-octadec-9-en-1-yl)oxy)-11,13-dioxa-4-aza-12-silaheptadecan-17-oate]",105.5,104.3,110.6,109.4,98.9,80.7,63.8,49.2,691,89,,,
"C#CCN(C)CCCCCCO[Si](C)(C)OC(CC(C)(C)C(=O)OCCCCCCCC/C=C\CCCCCCCC)OCCCCCCCC/C=C\CCCCCCCC (centres unmarked) [Example 97, (Z)-octadec-9-en-1-yl 4,12,12,16,16-pentamethyl-14-(((Z)-octadec-9-en-1-yl)oxy)-11,13-dioxa-4-aza-12-silaheptadec-1-yn-17-oate]",100.7,96.1,95.5,97.5,98.9,99.7,91.8,0.7,,86,501,,
"CCCCCCCC/C=C\CCCCCCCC(OCCCCCCCCCCCC1CCCCC1)O[Si](C)(C)OCCCCCCN(CCO)CCO (centres unmarked) [Example 74, (Z)-25-cyclohexyl-13-(heptadec-8-en-1-yl)-3-(2-hydroxyethyl)-11,11-dimethyl-10,12,14-trioxa-3-aza-11-silapentacosan-1-ol]",101.5,100.8,,112.5,121.9,117.3,103.1,93.8,> 800,87,,107.8,
"CCCCC/C=C\C/C=C\CCCCCCCCOC(CCCCCCC/C=C\C/C=C\CCCCC)O[Si](C)(C)OCCCCCCN(C)C (centres unmarked) [Example 79, (20Z,23Z)-10-((8Z,11Z)-heptadeca-8,11-dien-1-yl)-N,N,8,8-tetramethyl-7,9,11-trioxa-8-silanonacosa-20,23-dien-1-amine]",100.82,98.88,99.57,101.89,99.49,76.57,52.32,34.54,,,473,,83
"CCCCCCCC/C=C\CCCCCCCC(OCCC(C)CCCC(C)CCCC(C)CCCC(C)C)O[Si](C)(C)OCCCCCCN(CCO)CCO (centres unmarked) [Example 75, (Z)-13-(heptadec-8-en-1-yl)-3-(2-hydroxyethyl)-11,11,17,21,25,29-hexamethyl-10,12,14-trioxa-3-aza-11-silatriacontan-1-ol]",110.3,109.2,105.7,104.5,102.8,112.9,102.4,90.2,> 800,89,,,
"CCCCC/C=C\C/C=C\CCCCCCCCO[Si](C)(C)OC(CCCCCCC/C=C\C/C=C\CCCCC)OCCCN(C)C (centres unmarked) [Example 80, (17Z,20Z)-5-((8Z,11Z)-heptadeca-8,11-dien-1-yl)-N,N,7,7-tetramethyl-4,6,8-trioxa-7-silahexacosa-17,20-dien-1-amine]",98.8,98.68,98.64,99.05,96.68,69.13,0.79,0.71,,,223,,83
"CCCCCCCC/C=C\CCCCCCCC(OCCCCCCCCCCCCCCCC)O[Si](C)(C)OCCCCCCN(CCO)CCO (centres unmarked) [Example 42, (Z)-13-(heptadec-8-en-1-yl)-3-(2-hydroxyethyl)-11,11-dimethyl-10,12,14-trioxa-3-aza-11-silatriacontan-1-ol]",105.1,100.0,98.9,102.2,107.6,117.1,104.2,99.8,> 800,87,,,
